These are literature values, as cited in patent US20140314667A1, “METHODS OF TREATING EPIDERMAL GROWTH FACTOR DELETION MUTANT VIII RELATED DISORDERS” (AMGEN INC., priority 2011, published 2014).

Data set [1] relates to L1210 cells. The settings on record: Sieber et al.; untreated control mitotic index 3.2 to 5.8%; cited from earlier work.
The test system of data set [2] is P388, L1210, and LY5178 murine leukemic cell suspensions. The settings on record: in vitro; cited from earlier work.
For data set [3], the system named is human acute lymphoblastic leukemia line CEM. To be noted: in vitro, Wolpert-DeFillippes et al.; cited from earlier work.
Data set [4] relates to P388 lymphocytic leukemia system. To be noted: Kupchan 1974; cited from earlier work.
Data set [5] has as its system L1210 mouse leukemia system, the human Lewis lung carcinoma system and the human B-16 melanocarcinoma system. The settings on record: Kupchan 1974; cited from earlier work.
The conditions of data set [6]: U.S. Pat. No. 3,896,111; cited from earlier work.

Take `COc1cc2cc(c1Cl)N(C)C(=O)C[C@H](OC(=O)[C@H](C)N(C)C(C)=O)[C@]1(C)O[C@H]1[C@H](C)[C@@H]1C[C@@](O)(NC(=O)O1)[C@H](OC)/C=C/C=C(\C)C2` [Maytansine]: the “cells accumulating in mitosis” value in data set [1] is reported as 67%. Moreover, in data set [2], the inhibitory doses is 10^−3 to 10^−1 µg/µl. The inhibitory concentration in data set [3] is reported as ≥ 10^−7 mg/ml. In data set [4], the “dosage range over which tumor growth was inhibited” value is on record as 50- to 100 fold. In addition, in data set [5], the inhibitory activity entry is on record as “significant inhibitory activity”. Further, the “more cytotoxic than conventional cancer chemotherapeutic agents like methotrexate, daunorubicin, and vincristine” value in data set [6] was 100 to 1000 fold.
